Experimental data taken from paper PMC10600005 (Nature, 2023).

Target: T1, nuclease P1 (P1 nuclease) (Penicillium citrinum, UniProt P24289)
T1 construct: commercial enzyme (New England Biolabs)
T1 sequence (P24289 1-270): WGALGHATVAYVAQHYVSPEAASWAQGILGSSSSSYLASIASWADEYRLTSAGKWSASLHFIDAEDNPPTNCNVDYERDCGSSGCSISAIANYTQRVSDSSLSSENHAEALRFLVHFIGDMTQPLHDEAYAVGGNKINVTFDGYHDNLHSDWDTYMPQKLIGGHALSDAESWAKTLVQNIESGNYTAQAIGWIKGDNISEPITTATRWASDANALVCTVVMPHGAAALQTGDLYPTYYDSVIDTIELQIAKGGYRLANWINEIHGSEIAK
Assay: HPLC product analysis
Assay type: biochemical
Settings: 50 mM sodium acetate pH 5.5, 37 C, 1 h, 100 uM substrate

Question: Nc1ncnc2c1ncn2[C@@H]1O[C@H](COP(=O)(O)O[C@H]2[C@@H](O)[C@H](n3cnc4c(N)ncnc43)O[C@@H]2CSCC[C@H](N)C(=O)O)[C@@H](O)[C@H]1O [SAH-AMP] was tested. Which HPLC product analysis did it give?
Answer: SAH-AMP was completely degraded by nuclease P1

Question: With C[S+](CC[C@H](N)C(=O)O)C[C@H]1O[C@@H](n2cnc3c(N)ncnc32)[C@H](O)[C@@H]1OP(=O)(O)OC[C@H]1O[C@@H](n2cnc3c(N)ncnc32)[C@H](O)[C@@H]1O (some centres unmarked) [SAM-AMP] as the molecule, how does the HPLC product analysis (partial degradation) read?
Answer: we observed only partial degradation of SAM-AMP
